According to patent US20060008574A1, “Galactosyl isomalt, method for production and use thereof” (priority 2002, published 2006):

Columns and labels:
Experiment in all cases: Fermentation by human bifidobacteria
Format in all cases: cell-based
Parameters in all cases: key: −: no decomposition; +: decomposition and metabolization of galactose from β-1,3-galactosyl isomalt; ++: decomposition and metabolization of galactose and glucose from β-1,3-galactosyl isomalt; +++: complete decomposition of β-1,3-galcatosyl isomalt
Conditions in all cases: medium 2, 48 h
B. bifidum DSM 20215 = tested on: B. bifidum DSM 20215
Protocol: (§1) To investigate the prebiotic and bifidogenic properties of galactosyl isomalt, the growth of various human bifidobacteria was investigated on this substrate in vitro. An anaerobic medium of the following composition was used:
(§2) 22 strains of human bifidobacteria were first precultured in “Hungate” test tubes on the above medium 1, in which the source of carbohydrate had first been replaced by glucose (10 g/L). The strains were then inoculated onto medium 2, incubated for 48 h, and then the optical density (E578), the pH, the formation of acetate and lactate and the decrease of the β-1,3-galactosyl isomalt concentration were determined.
(§3) Various decomposition paths are distinguished with regard to the metabolization of galactosyl isomalt. Some strains degrade galactose from the substrate with a β-galactosidase and metabolize this monosaccharide (+).
(§4) Other strains additionally degrade glucose from the resulting isomalt, in addition to galactose, metabolize both monosaccharides, while this is not true for the resulting mannitol or sorbitol (++). The third group is capable of utilizing galactosyl isomalt as a substrate and also metabolizing mannitol and sorbitol (+++).

B. infantis DSM 20088 = tested on: B. infantis DSM 20088
Protocol: as §1, §2, §3, §4

[1] = tested on: B. pseudocatenulatum DSM 20438
Protocol: as §1, §2, §3, §4

B. catenulatum DSM 20103 = tested on: B. catenulatum DSM 20103
Protocol: as §1, §2, §3, §4

B. gallicum DSM 20093 = tested on: B. gallicum DSM 20093
Protocol: as §1, §2, §3, §4

B. breve DSM 20213 = tested on: B. breve DSM 20213
Protocol: as §1, §2, §3, §4

B. bifidum DSM 20456 = tested on: B. bifidum DSM 20456
Protocol: as §1, §2, §3, §4

B. infantis DSM 20090 = tested on: B. infantis DSM 20090
Protocol: as §1, §2, §3, §4

[2] = tested on: B. adolescentis DSM 20087
Protocol: as §1, §2, §3, §4

B. bifidum DSM 20239 = tested on: B. bifidum DSM 20239
Protocol: as §1, §2, §3, §4

B. bifidum DSM 20082 = tested on: B. bifidum DSM 20082
Protocol: as §1, §2, §3, §4

B. longum DSM 20097 = tested on: B. longum DSM 20097
Protocol: as §1, §2, §3, §4

B. longum DSM 20219 = tested on: B. longum DSM 20219
Protocol: as §1, §2, §3, §4

B. angulatum DSM 20098 = tested on: B. angulatum DSM 20098
Protocol: as §1, §2, §3, §4

B. infantis DSM 20223 = tested on: B. infantis DSM 20223
Protocol: as §1, §2, §3, §4

B. angulatum DSM 20225 = tested on: B. angulatum DSM 20225
Protocol: as §1, §2, §3, §4

B. infantis DSM 20218 = tested on: B. infantis DSM 20218
Protocol: as §1, §2, §3, §4

OCC1O[C@H](OC[C@@H](O)[C@@H](O)[C@H](O)C(O)CO)C(O)C(O[C@@H]2OC(CO)[C@H](O)C(O)C2O)[C@@H]1O (mixture of isomers) [β-1,3-Galactosyl isomalt, β-D-galactosyl-(1→3)-α-D-glucosyl-(1→6)-D-sorbitol(β-1,3-galactosyl-1,6-GPS) and β-D-galactosyl-(1→3)-α-D-glucosyl-(1→1)-D-mannitol(β-1,3-galactosyl-1,1-GPM)]
Growth on β-1,3-galactosyl isomalt (B. bifidum DSM 20215): +
Growth on β-1,3-galactosyl isomalt (B. infantis DSM 20088): ++
Growth on β-1,3-galactosyl isomalt [1]: ++
Growth on β-1,3-galactosyl isomalt (B. catenulatum DSM 20103): ++
Growth on β-1,3-galactosyl isomalt (B. gallicum DSM 20093): −
Growth on β-1,3-galactosyl isomalt (B. breve DSM 20213): +
Growth on β-1,3-galactosyl isomalt (B. bifidum DSM 20456): −
Growth on β-1,3-galactosyl isomalt (B. infantis DSM 20090): ++
Growth on β-1,3-galactosyl isomalt [2]: +++
Growth on β-1,3-galactosyl isomalt (B. bifidum DSM 20239): +
Growth on β-1,3-galactosyl isomalt (B. bifidum DSM 20082): +
Growth on β-1,3-galactosyl isomalt (B. longum DSM 20097): ++
Growth on β-1,3-galactosyl isomalt (B. longum DSM 20219): +++
Growth on β-1,3-galactosyl isomalt (B. angulatum DSM 20098): ++
Growth on β-1,3-galactosyl isomalt (B. infantis DSM 20223): +++
Growth on β-1,3-galactosyl isomalt (B. angulatum DSM 20225): ++
Growth on β-1,3-galactosyl isomalt (B. infantis DSM 20218): −
